Results on four compounds are retold here after paper PMC12006171, “Marsupial cathelicidins: characterization, antimicrobial activity and evolution in this unique mammalian lineage” (Frontiers in Immunology, 2025).

Experiment [1] relates to panel of 11 bacteria and three fungi. The experiment can be described thus: Antimicrobial screening phases I and II, summary over all strains. It is filed as cell-based. Particulars: active = MIC ≤64µg/mL against the strains tested. Here is the method: Antimicrobial testing of 78 cathelicidin MPs was performed in two phases as outlined in Figure 1 . In phase I, 40 peptides (27 extant and 13 ancestral) were selected for testing based on rank (outlined above) and similarity to published marsupial cathelicidins with known antimicrobial activity ([33], [41]–[43]). These peptides were tested against nine bacteria (Staphylococcus aureus ATCC 29213 and clinical isolate, Escherichia coli ATCC 25922 and clinical isolate, Pseudomonas aeruginosa ATCC 27853 and clinical isolate, Streptococcus agalactiae ATCC 12386 and clinical isolate, Streptococcus pneumoniae ATCC 49619) and three fungi (Candida krusei ATCC 6258, Candida parapsilosis ATCC 22019, and Candida albicans clinical isolate). Details regarding these strains are available in Supplementary Table 4 . The antimicrobial activity of cathelicidins was determined as the minimum inhibitory concentration (MIC), which was the lowest concentration of cathelicidin that prevented visible bacterial or fungal growth, relative to the negative control. […]
Antimicrobial activity was determined using a broth microdilution susceptibility assay in 96 well polypropylene plates according to Clinical Laboratory Standards Institute guidelines M07-A and M26A as described previously ([33], [42], [43]). […]

The subject of experiment [2] is six bacteria (S. aureus, E. coli, P. aeruginosa; ATCC and clinical isolate). It is filed as cell-based. The following applies: synthesized mature peptide. In a few lines:
(§1)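 Bacteria at a final 5 x 10^5 CFU/mL were incubated 20–24 h at 35 °C with DMSO-solubilized peptides serially diluted to 64–0.125 μg/mL in Mueller Hinton broth (± lysed horse blood, ± divalent cations). MIC read as no visible growth; bactericidal action from colony counts compared with the inoculum.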

The test system of experiment [3] is three fungi (Candida krusei, Candida parapsilosis, Candida albicans). The experiment can be described thus: Antifungal screening, summary over the panel of fungi (broth microdilution). In kind it is cell-based. Particulars: synthesized mature peptide. The method, boiled down:
(§2)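 Endpoint is visible-growth inhibition (MIC) after 35°C, 20–24 h incubation. Yeast medium was RPMI-1640 MOPS; bacterial medium was Mueller Hinton broth, with or without divalent cations and lysed horse blood. Final peptide range 64-0.125μg/mL.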

For experiment [4] the following is noted: in vivo; cited from earlier work.
Experiment [5] deals with bacterial and fungal infections in chemotherapy patients. The following applies: human, in vivo; cited from earlier work.
Experiment [6] relates to six bacteria (S. aureus, E. coli, P. aeruginosa; ATCC and clinical isolate). Also on record: method as in 4 sources, ref Peel et al 2016 ||| ref Peel et al 2021 ||| ref Wang et al 2011 ||| ref Peel et al 2017. Particulars: mature peptide; Y/N summary from earlier study; ref Peel et al 2021; cited from earlier work.
A further experiment has as its system Chlamydia. Particulars: in vitro; cited from earlier work. The source says: Many marsupial and monotreme cathelicidins were closely related to the classic cathelicidins found in eutherians. These cathelicidins sit within clade II in the phylogenetic tree, sister to eutherians but were not orthologous ( Figure 3 ). Classic marsupial cathelicidins were encoded in cluster A in the genome of all marsupials and monotremes studied, syntenic to the single cathelicidin gene/cluster in eutherians ( Figure 2 ). Many of these were antimicrobial and bactericidal, with MICs equal to or less than eutherian peptides such as cow BMAP-27 and -28 ([87]) and human LL-37, including again ...

Experiment [7] concerns three fungi (Candida krusei, Candida parapsilosis, Candida albicans). Also on record: method as in 4 sources, ref Peel et al 2016 ||| ref Peel et al 2021 ||| ref Wang et al 2011 ||| ref Peel et al 2017. The following applies: mature peptide; Y/N summary from earlier study; ref Peel et al 2021; cited from earlier work.
The test system of experiment [8] is Escherichia coli clinical isolate - animal. The experiment can be described thus: microbe, parasite or virus in culture. It is filed as cell-based. In a few lines: as §1
Experiment [9] deals with Staphylococcus aureus clinical isolate - animal. The experiment can be described thus: microbe, parasite or virus in culture. It is filed as cell-based. The following applies: clinical isolate - animal; read-out: MIC S. aureus. In a few lines: as §1
For experiment [10], the system named is Pseudomonas aeruginosa ATCC 27853. The experiment can be described thus: microbe, parasite or virus in culture. It is filed as cell-based. The following applies: ATCC 27853; read-out: MIC P. aeruginosa ATCC. In a few lines: as §1
Experiment [11] deals with Staphylococcus aureus ATCC 29213. The experiment in a line: microbe, parasite or virus in culture. In kind it is cell-based. The following applies: ATCC 29213; read-out: MIC S. aureus ATCC. The method, boiled down:
as §1

Experiment [12] has as its system Pseudomonas aeruginosa clinical isolate - animal. The experiment can be described thus: microbe, parasite or virus in culture. Particulars: clinical isolate - animal; read-out: MIC P. aeruginosa. In kind it is cell-based. The method, boiled down: as §1
Experiment [13] concerns Escherichia coli ATCC 25922. The experiment can be described thus: microbe, parasite or virus in culture. It is filed as cell-based. In a few lines: as §1
Experiment [14] concerns Streptococcus agalactiae ATCC 12386. The experiment in a line: microbe, parasite or virus in culture. In kind it is cell-based. The following applies: ATCC 12386; read-out: MIC S. agalactiae ATCC. The method, boiled down: as §2
The subject of experiment [15] is Streptococcus pneumoniae ATCC 49619. The experiment can be described thus: microbe, parasite or virus in culture. It is filed as cell-based. The following applies: ATCC 49619; read-out: MIC S. pneumoniae ATCC. The method, boiled down: as §2
Experiment [16] has as its system Streptococcus agalactiae Clinical isolate - animal. The experiment in a line: microbe, parasite or virus in culture. The following applies: clinical isolate - animal; read-out: MIC S. agalactiae. It is filed as cell-based. In a few lines: as §2

Read-outs that look alike come from different tables or passages of the source. Where a SMILES comes first, the peptide text is derived from it.

“RFKRSLSDGVIDTSSLPPRIRDIYLQAKYDIISRILRN [MAP1, marsupial ancestral peptide 1, predicted ancestral cathelicidin of the NGP clade]”: the “Antimicrobial activity in the assays” value in [1] is listed as “none displayed antimicrobial activity”. Also, the “Antibacterial (MIC <64ug/mL)” value in [2] (antimicrobial screening Phase I, Y/N summary over bacteria tested, broth microdilution) is listed as “N (Antibacterial (MIC <64ug/mL))”. The “Antifungal (MIC <64ug/mL)” value in experiment [3] (antimicrobial screening Phase I, Y/N summary over fungi tested, broth microdilution) is “N (Antifungal (MIC <64ug/mL))”.
Consider iseganan, for which the “Clinical outcomes in ventilator-associated pneumonia” value in [4] was “no difference was observed between treated or placebo groups”. In experiment [5], the “Bacterial and fungal infections in oral mucositis patients” value was “significantly reducing bacterial and fungal infections”.
In the case of “KRGGIWKLIRPLGRGAGRILRHFHIDFCGNC [PhciCath5, koala cathelicidin, reference compound]”, in experiment [6], the “Antibacterial (MIC <64ug/mL)” value was “Y (Peel et al 2021) (Antibacterial (MIC <64ug/mL))”. The “Killing of Chlamydia” value in the experiment on Chlamydia was “killed Chlamydia in vitro”. Further, in experiment [7], the “Antifungal (MIC <64ug/mL)” value was “Y (Peel et al 2021) (Antifungal (MIC <64ug/mL))”.
Turning to `CC[C@H](C)[C@H](NC(=O)[C@H](CCCNC(=N)N)NC(=O)[C@H](CCCNC(=N)N)NC(=O)[C@@H]1CCCN1C(=O)[C@H](CC(N)=O)NC(=O)[C@H](CS)NC(=O)[C@H](CCCCN)NC(=O)[C@H](CCCNC(=N)N)NC(=O)[C@@H](NC(=O)[C@H](CC(C)C)NC(=O)[C@H](CC(C)C)NC(=O)[C@H](CS)NC(=O)[C@H](CCCNC(=N)N)NC(=O)[C@H](CCCCN)NC(=O)[C@H](CCCNC(=N)N)NC(=O)[C@H](CCCCN)NC(=O)[C@H](Cc1ccccc1)NC(=O)[C@H](CCCNC(=N)N)NC(=O)[C@H](CC(C)C)NC(=O)[C@@H]1CCCN1C(=O)[C@H](CCC(=O)O)NC(=O)[C@@H]1CCCN1)[C@@H](C)O)C(=O)N[C@H](C(=O)N[C@@H](Cc1ccccc1)C(=O)N[C@@H](CO)C(=O)N[C@@H](CC(C)C)C(=O)N[C@@H](CC(C)C)C(=O)N[C@@H](CCCCN)C(=O)NCC(=O)N[C@@H](CCCCN)C(=O)O)[C@@H](C)O` [TrvuCath2] (H-PEPLRFKRKRCLLTRKCNPRRITFSLLKGK-OH; N-terminus and C-terminus assumed), in experiment [1], the “Antimicrobial activity in the assays” value was “displayed activity”. Further, the “Antibacterial (MIC <64ug/mL)” value in [2] (broth microdilution screening, phase I or II, Y/N summary over the bacteria tested) is “Y (Antibacterial (MIC <64ug/mL))”. Further, in experiment [3] (broth microdilution screening, phase I, Y/N summary over the fungi tested), the “Antifungal (MIC <64ug/mL)” value is “N (Antifungal (MIC <64ug/mL))”. In addition, the “MBC E. coli” value in experiment [8] (clinical isolate - animal) was 17.5 (17.5)^17.5 µM; in experiment [8] (clinical isolate, value in brackets, 99.9% reduction in CFU/mL) it was 64 (64)^64 µg/mL. The “MIC E. coli” value is 17.5 (17.5)^17.5 µM in [8] (clinical isolate - animal) and 64 (64)^64 µg/mL in [8] (clinical isolate, MHB without cations, 5 x 10^5 CFU/mL, 35°C 20–24 hours, duplicate). For the same compound, the “MIC in the presence of cations E. coli” value in experiment [8] (clinical isolate - animal) is reported as 17.5 (17.5)^17.5 µM; in experiment [8] (clinical isolate, superscript value, cation-adjusted Mueller Hinton broth), 64 (64)^64 µg/mL. Besides, the MIC in [9], in experiment [10], in experiment [11], in experiment [12], in experiment [14] and in experiment [15] was greater than 17.5 µM throughout. In addition, the MIC in experiment [16] is greater than 17.5 µM. In addition, the “MBC E. coli ATCC” value in [13] (ATCC 25922) is given as 17.5 (17.5)^17.5 µM; in [13] (value in brackets, 99.9% reduction in CFU/mL) it was 64 (64)^64 µg/mL. For the same compound, the “MIC E. coli ATCC” value in experiment [13] (ATCC 25922) is listed as 17.5 (17.5)^17.5 µM; in experiment [13] (MHB without cations, 5 x 10^5 CFU/mL, 35°C 20–24 hours, duplicate), 64 (64)^64 µg/mL. For the same compound, the “MIC in the presence of cations E. coli ATCC” value in experiment [13] (ATCC 25922) was 17.5 (17.5)^17.5 µM; in experiment [13] (superscript value, cation-adjusted Mueller Hinton broth), 64 (64)^64 µg/mL.
